# According to patent US20260209214A1, “LSD1 MODULATORS” (RECURSION PHARMACEUTICALS, INC., priority 2022, published 2026):
# Biological target: Recombinant human LSD1 (Homo sapiens, UniProt O60341)
# Assay: LSD1 inhibition assay (HTRF LSD1 Histone H3K4 mono-demethylation assay, me1->me0)
# Type: biochemical
# Settings: 20 nM recombinant human LSD1, 95 nM H3K4(me1) biotinylated peptide, 15 min preincubation, 60 min at 25° C., read-out: LSD1 inhibition IC50 (nM range)
# Method in brief: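 Recombinant human LSD1 (20 nM) pre-incubated 15 min with 10 semi-log compound doses, then 95 nM biotinylated H3K4me1 peptide for 60 min at 25 °C in pH 8.5 Tris/NaCl buffer with 10 μM FAD, 1 mM DTT. HTRF me0-antibody read after 90 min; IC50 from 4-parameter fit.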
row,Structure (SMILES),IC50 [nM]
1,"N#Cc1ccc(-c2cccc(CN3[C@H]4CC[C@@H]3[C@H](N)C4)c2-c2ccns2)cc1 (single isomer, unassigned) [Example 187]",10 to 25
2,"CN[C@@H]1C[C@@H]2CC[C@H]1N2Cc1cccc(-c2ccc(C#N)c(F)c2)c1-c1ccns1 (single isomer, unassigned) [Example 190]",< 10
3,"CC1(C)CN(Cc2cccc(-c3ccc(C#N)c(F)c3)c2-c2ccns2)C[C@H]1N (single isomer, unassigned) [Example 194]",< 10
4,"CC1(C)CN(Cc2cccc(-c3ccc(C#N)c(F)c3)c2-c2ccns2)C[C@@H]1N (single isomer, unassigned) [Example 197]",< 10
5,"CCN[C@@H]1C[C@@H]2CC[C@H]1N2Cc1cccc(-c2ccc(C#N)c(F)c2)c1C1CC1 (single isomer, unassigned) [Example 201]",10 to 25
6,"N#Cc1ccc(-c2cccc(CN3[C@@H]4CC[C@H]3[C@@H](N)C4)c2-c2ccns2)cc1 (single isomer, unassigned) [Example 204]",10 to 25
7,"CCCc1c(CN2[C@H]3CC[C@@H]2[C@H](N)C3)cccc1-c1ccc(C#N)c(F)c1 (single isomer, unassigned) [Example 212]",25 to 100
8,"N#Cc1ccc(-c2cccc(CN3[C@H]4CC[C@@H]3[C@H](N)C4)c2CC2CC2)cc1F (single isomer, unassigned) [Example 221]",25 to 100
9,"N#Cc1ccc(-c2cc(F)cc(CN3[C@H]4CC[C@@H]3[C@H](N)C4)c2C2CC2)cc1F (single isomer, unassigned) [Example 223]",10 to 25
10,"CC(C)N[C@@H]1C[C@@H]2CC[C@H]1N2Cc1cccc(-c2ccc(C#N)c(F)c2)c1C1CC1 (single isomer, unassigned) [Example 248]",100 to 1000
11,"N#Cc1ccc(-c2cccc(CN3[C@@H]4CC[C@H]3[C@@H](N)C4)c2C2CC2)cc1F (single isomer, unassigned) [Example 261]",100 to 1000
12,"N#Cc1ccc(-c2cccc(CC3CNCCO3)c2-c2ocnc2F)cc1 (stereo in doubt) [Example 2, 2′-(4-fluoro-1,3-oxazol-5-yl)-3′-{[(2R)-morpholin-2-yl]methyl}-[1,1′-biphenyl]-4-carbonitrile]",10 to 25
13,"CN1C[C@@H]2C[C@H]1CN2Cc1cc(-c2ccc(C#N)c(F)c2)cc(N2CCCC2)c1 (stereo in doubt) [Example 300, 2-fluoro-4-[3-[[(1S,4S)-5-methyl-2,5-diazabicyclo[2.2.1]heptan-2-yl]methyl]-5-pyrrolidin-1-yl-phenyl]benzonitrile]",100 to 1000
14,"N#Cc1ccc(-c2cccc(CN3C[C@H]4C[C@@H](N)C[C@@H]3C4)c2C2CC2)cc1F (stereo in doubt) [Example 318, 3'-{[(1S,3R,5S)-3-amino-6-azabicyclo[3.2.1]octan-6-yl]methyl}-2'-cyclopropyl-3-fluoro-[1,1'-biphenyl]-4-carbonitrile]",25 to 100
15,Cn1cc2cc(-c3ccc(CC4CNCCO4)cc3-c3ccc(C#N)c(F)c3)ccc2n1 (stereo not drawn) [Compound 58],100 to 1000
16,Cc1cc(CN2CCC3(CCN3C)C2)c(Cl)c(-c2ccc(C#N)c(F)c2)c1 (stereo not drawn) [Compound 240],25 to 100
17,"N#Cc1ccc(-c2cccc(C[C@@H]3CNCCO3)c2-c2ocnc2F)cc1 [Example 3, 2′-(4-fluoro-1,3-oxazol-5-yl)-3′-{[(2R)-orpholin-2-yl]methyl}-[1,1′-biphenyl]-4-carbonitrile]",10 to 25
18,"N#Cc1ccc(-c2cccc(CC3CNCCO3)c2-c2ccno2)cc1 (stereo not drawn) [Example 12, 3′-[(morpholin-2-yl)methyl]-2′-(1,2-oxazol-5-yl)-[1,1′-biphenyl]-4-carbonitrile]",10 to 25
19,"N#Cc1ccc(-c2cccc(CC3CNCCO3)c2-c2cnco2)cc1 (stereo not drawn) [Example 27, 3′-[(morpholin-2-yl)methyl]-2′-(1,3-oxazol-5-yl)-[1,1′-biphenyl]-4-carbonitrile]",25 to 100
20,"CCC1(O)CCN(c2ccc(CC3CNCCO3)cc2-c2ccc(C#N)c(F)c2)CC1 (stereo not drawn) [Example 33, 2′-(4-ethyl-4-hydroxypiperidin-1-yl)-3-fluoro-5′-[(morpholin-2-yl)methyl]-[1,1′-biphenyl]-4-carbonitrile]",25 to 100
21,"N#Cc1ccc(-c2cccc(CC3CNCCO3)c2-c2cncs2)cc1 (stereo not drawn) [Example 34, 3′-[(morpholin-2-yl)methyl]-2′-(1,3-thiazol-5-yl)-[1,1′-biphenyl]-4-carbonitrile]",10 to 25
22,"Cc1ncsc1-c1c(CC2CNCCO2)cccc1-c1ccc(C#N)cc1 (stereo not drawn) [Example 38, 2′-(4-methyl-1,3-thiazol-5-yl)-3′-[(morpholin-2-yl)methyl]-[1,1′-biphenyl]-4-carbonitrile]",10 to 25
23,"Cc1cc(CC2CNCCO2)c(-c2cncs2)c(-c2ccc(C#N)cc2)c1 (stereo not drawn) [Example 39, 5′-methyl-3′-[(morpholin-2-yl)methyl]-2′-(1,3-thiazol-5-yl)-[1,1′-biphenyl]-4-carbonitrile]",10 to 25

# Continued, values first:
row,IC50 [nM],Structure (SMILES)
1,10 to 25,"N#Cc1ccc(-c2cccc(CC3CNCCO3)c2-c2ccns2)cc1 (stereo not drawn) [Example 1, 3′-[(morpholin-2-yl)methyl]-2′-(1,2-thiazol-5-yl)-[1,1′-biphenyl]-4-carbonitrile]"
2,< 10,"N#Cc1ccc(-c2cccc(C[C@H]3CNCCO3)c2-c2ccns2)cc1F [Example 4, 3-fluoro-3′-{[(2S)-morpholin-2-yl]methyl}-2′-(1,2-thiazol-5-yl)-[1,1′-biphenyl]-4-carbonitrile]"
3,10 to 25,"N#Cc1ccc(-c2cccc(CC3CNCCO3)c2C2=CCOC2)cc1F (stereo not drawn) [Example 10, 2′-(2,5-dihydrofuran-3-yl)-3-fluoro-3′-[(morpholin-2-yl)methyl]-[1,1′-biphenyl]-4-carbonitrile]"
4,< 10,"N#Cc1ccc(-c2cccc(C[C@H]3CNCCO3)c2-c2ocnc2F)cc1F [Example 15, 3-fluoro-2′-(4-fluoro-1,3-oxazol-5-yl)-3′-{[(2S)-morpholin-2-yl]methyl}-[1,1′-biphenyl]-4-carbonitrile]"
5,10 to 25,"N#Cc1ccc(-c2cccc(CC3CNCCO3)c2-c2ccno2)cc1F (stereo not drawn) [Example 16, 3-fluoro-3′-[(morpholin-2-yl)methyl]-2′-(1,2-oxazol-5-yl)-[1,1′-biphenyl]-4-carbonitrile]"
6,10 to 25,"N#Cc1ccc(-c2cc(F)cc(CC3CNCCO3)c2-c2ccns2)cc1F (stereo not drawn) [Example 18, 3,5′-difluoro-3′-[(morpholin-2-yl)methyl]-2′-(1,2-thiazol-5-yl)-[1,1′-biphenyl]-4-carbonitrile]"
7,10 to 25,"N#Cc1ccc(-c2cc(F)cc(CC3CNCCO3)c2-c2cncs2)cc1F (stereo not drawn) [Example 19, 3,5′-difluoro-3′-[(morpholin-2-yl)methyl]-2′-(1,3-thiazol-5-yl)-[1,1′-biphenyl]-4-carbonitrile]"
8,< 10,"N#Cc1ccc(-c2cccc(CC3CNCCCO3)c2-c2ccns2)cc1F (stereo not drawn) [Example 20, 3-fluoro-3′-[(1,4-oxazepan-2-yl)methyl]-2′-(1,2-thiazol-5-yl)-[1,1′-biphenyl]-4-carbonitrile]"
9,100 to 1000,"N#Cc1ccc(-c2cccc(CC3CNCCO3)c2N2CCC2)cc1F (stereo not drawn) [Example 21, 2′-(azetidin-1-yl)-3-fluoro-3′-[(morpholin-2-yl)methyl]-[1,1′-biphenyl]-4-carbonitrile]"
10,10 to 25,"Cc1ncsc1-c1c(CC2CNCCO2)cccc1-c1ccc(C#N)c(F)c1 (stereo not drawn) [Example 24, 3-fluoro-2′-(4-methyl-1,3-thiazol-5-yl)-3′-[(morpholin-2-yl)methyl]-[1,1′-biphenyl]-4-carbonitrile]"
11,10 to 25,"N#Cc1ccc(-c2ccc(F)c(CC3CNCCO3)c2-c2cncs2)cc1F (stereo not drawn) [Example 25, 3,4′-difluoro-3′-[(morpholin-2-yl)methyl]-2′-(1,3-thiazol-5-yl)-[1,1′-biphenyl]-4-carbonitrile]"
12,< 10,"N#Cc1ccc(-c2cccc(C[C@@H]3CNCCO3)c2-c2ccns2)cc1F [Example 28, 3-fluoro-3′-{[(2R)-morpholin-2-yl]methyl}-2′-(1,2-thiazol-5-yl)-[1,1′-biphenyl]-4-carbonitrile]"
13,10 to 25,"N#Cc1ccc(-c2cccc(CC3CNCCO3)c2-c2ocnc2F)cc1F (stereo not drawn) [Example 29, 3-fluoro-2′-(4-fluoro-1,3-oxazol-5-yl)-3′-[(morpholin-2-yl)methyl]-[1,1′-biphenyl]-4-carbonitrile]"
14,25 to 100,"N#Cc1ccc(-c2cccc(CC3CNCCO3)c2-c2cccnc2)cc1F (stereo not drawn) [Example 32, 3-fluoro-3′-[(morpholin-2-yl)methyl]-2′-(pyridin-3-yl)-[1,1′-biphenyl]-4-carbonitrile]"
15,25 to 100,"Cc1nocc1-c1c(CC2CNCCO2)cccc1-c1ccc(C#N)c(F)c1 (stereo not drawn) [Example 35, 3-fluoro-2′-(3-methyl-1,2-oxazol-4-yl)-3′-[(morpholin-2-yl)methyl]-[1,1′-biphenyl]-4-carbonitrile]"
16,10 to 25,"N#Cc1ccc(-c2cccc(CC3CNCCO3)c2-c2ccns2)cc1F (stereo not drawn) [Example 36, 3-fluoro-3′-[(morpholin-2-yl)methyl]-2′-(1,2-thiazol-5-yl)-[1,1′-biphenyl]-4-carbonitrile]"
17,100 to 1000,"N#Cc1ccc(-c2cccc(CC3CNCCO3)c2N2CC(F)C2)cc1F (stereo not drawn) [Example 40, 3-fluoro-2′-(3-fluoroazetidin-1-yl)-3′-[(morpholin-2-yl)methyl]-[1,1′-biphenyl]-4-carbonitrile]"
18,100 to 1000,"N#Cc1ccc(-c2cccc(CC3CNCCO3)c2C2CC2)cc1F (stereo not drawn) [Example 42, 2′-cyclopropyl-3-fluoro-3′-[(morpholin-2-yl)methyl]-[1,1′-biphenyl]-4-carbonitrile]"
19,25 to 100,"Cc1cc(-c2cccc(CC3CNCCO3)c2-c2ccns2)ccc1C#N (stereo not drawn) [Example 43, 3-methyl-3′-[(morpholin-2-yl)methyl]-2′-(1,2-thiazol-5-yl)-[1,1′-biphenyl]-4-carbonitrile]"
